According to patent US10519098B2, “Aromatic derivatives as anti-malarial” (Council of Scientific & Industrial Research, priority 2014, dated 2019):
pIC50: −log10 of the molar value. Several values for one entry are separate records, joined by “and”; a condition that tells them apart may be missing. Identical values can stand only once. Like-named read-outs stand apart in the source and are kept apart here.

Columns and labels:
[1] = system: multidrug resistant human nasopharyngeal carcinoma (KB); conditions: when used with vincristine; Bioorg. Med. Chem. Lett. 2012, 22 (24), 7726-7729; cited from earlier work
[2] = system: Chloroquine-resistant (K1) strain of P. falciparum; test: Malaria SYBR Green I-based fluorescence (MSF) assay, K1 strain; type: cell-based; conditions: Plasmodium falciparum
Experimental: (§1) The stock (5 mg/mL or 10 mM) solutions of extracts were prepared in DMSO and required dilutions were made in culture medium.
(§2) Two-fold serial dilutions of test samples were made in 96 well plates and incubated with 1.0% parasitized cell suspension containing 0.8% parasitaemia (Asynchronous culture with more than 80% ring stages). The plates were incubated at 37° C. in CO2 incubator in an atmosphere of 5% CO2 and air mixture. 72 hours later 100 μL of lysis buffer containing 2× concentration of SYBR Green-I (Invitrogen) was added to each well and incubated for one hour at 37° C. The plates were examined at 485±20 nm of excitation and 530±20 nm of emission for relative fluorescence units (RFUs) per well using the fluorescence plate reader (FLX800, BIOTEK). IC50 values were obtained by Logit regression analysis of dose response curves (Singh et al. 2011).

P. falciparum W(2) clone = conditions: J Nat Prod. 2004, 67(1), 88-90; read-out: IC(50) against P. falciparum W(2) clone; cited from earlier work
[3] = system: Plasmodium falciparum D(6) clone; conditions: J Nat Prod. 2004, 67(1), 88-90; read-out: IC(50) against Plasmodium falciparum D(6) clone; cited from earlier work
[4] = system: Chloroquine-sensitive (3D7) strain of P. falciparum; test: Malaria SYBR Green I-based fluorescence (MSF) assay, 3D7 strain; type: cell-based; conditions: Plasmodium falciparum
Experimental: as §1, §2

in vitro = conditions: monkey
Experimental: The cells were incubated with test sample dilutions for 72 h and MTT was used as reagent for detection of cytotoxicity. Podophyllotoxin (SIGMA) was used as the standard reference drug.

[5] = system: chloroquine resistant P. yoelii (N-67); test: In vivo evaluation in P. yoelii (N-67) Swiss mice model; conditions: 100 mg/kg intraperitoneal, four doses day 0-3 once daily; one value per mouse
Experimental: The molecules were tested at 100 mg/kg dose through intraperitoneal route. The mice received infective inoculum containing 1×10^5 parasites on day 0 and then received four doses of test compound on day 0-3 once daily. Five infected mice were used for each molecule and five infected mice were kept as untreated control. Arteether (5 mg/kg, ×4, intramuscular) was used as positive control. Thin blood smear from tail blood of each mouse was prepared on day 4. The blood smears were fixed in methanol, stained with Giemsa's stain and examined under the light microscope (100×oil immersion). At least 10-15 fields per smear were scanned to obtain percent parasitaemia in treated as well as untreated mice. If significant suppression in percent parasitaemia is observed on day 4, the monitoring continues up to day 28.

[6] = K1, range given for listed compounds, read-out: IC50 values against K1 culture
[7] = P. falciparum K1, 72 hours incubation, read-out: IC50 against K1
[8] = 3D7, range given for listed compounds, read-out: IC50 values against 3D7 culture
[9] = P. falciparum 3D7, 72 hours incubation, read-out: IC50 against 3D7

pIC50 [2, 6] | pIC50 [2, 7] | pIC50 [4, 8] | pIC50 [4, 9] | melting point [°C] | Compound | chemoreversal activity, fold more active than verapamil [1] [fold] | pIC50 (P. falciparum W(2) clone) | pIC50 [3] | CC50 at 72 h (in vitro) [nM] | % parasitaemia on day 4 in 5 individual mice [5]
5.40 to 5.82 | 5.68 | 5.15 to 5.70 | 5.64 | 138 to 140 | COc1ccc([C@H](CNC(=O)/C=C/c2cc(OC)c(OC)c(OC)c2)OC(=O)/C=C/c2cc(OC)c(OC)c(OC)c2)cc1OC [Compound 42, (R)-1-(3,4-dimethoxyphenyl)-2-((E)-3-(3,4,5-trimethoxyphenyl)acrylamido)ethyl (E)-3-(3,4,5-trimethoxyphenyl)acrylate] |  |  |  | 88900 | 14.07% and 12.50% and 15.10% and 12.16% and 11.46%
5.40 to 5.82 | 5.58 | 5.15 to 5.70 | 5.63 |  | COc1ccc([C@@H](COC(=O)/C=C/c2cc(OC)c(OC)c(OC)c2)OC(=O)/C=C/c2cc(OC)c(OC)c(OC)c2)cc1OC [Compound 56, (S)-1-(3,4-dimethoxyphenyl)ethane-1,2-diyl(2E,2′E)-bis(3-(3,4,5-trimethoxyphenyl)acrylate)] |  |  |  | 55700 | 06.06% and 08.31% and 16.23% and 13.92% and 11.13%

Second part, the compound before the results:

Compound | pIC50 [2, 6] | pIC50 [2, 7] | pIC50 [4, 8] | pIC50 [4, 9] | melting point [°C] | chemoreversal activity, fold more active than verapamil [1] [fold] | pIC50 (P. falciparum W(2) clone) | pIC50 [3] | CC50 at 72 h (in vitro) [nM] | % parasitaemia on day 4 in 5 individual mice [5]
COc1cc(C(=O)OCC(OC(=O)c2cc(OC)c(OC)c(OC)c2)c2cc(OC)c(OC)c(OC)c2)cc(OC)c1OC (stereo not shown) [bis-trimethoxybenzoyl derivative] |  |  |  |  |  | 340 |  |  |  | 
COc1ccc([C@@H](CNC(=O)/C=C/c2ccccc2)OC(=O)/C=C/c2ccccc2)cc1OC [Compound 1, (S)-2-cinnamamido-1-(3,4-dimethoxyphenyl)ethyl cinnamate] | 5.40 to 5.82 | 5.59 | 5.15 to 5.70 | 5.41 | 132 to 135 |  | 5.51 | 5.69 | 80700 | 09.50% and 13.76% and 11.93% and 11.72% and 13.20%
COc1cc(/C=C/C(=O)NC[C@@H](OC(=O)/C=C/c2cc(OC)c(OC)c(OC)c2)c2cc(OC)c(OC)c(OC)c2)cc(OC)c1OC [Compound 58, (S)-1-(3,4,5-trimethoxyphenyl)-2-((E)-3-(3,4,5-trimethoxyphenyl)acrylamido)ethyl (E)-3-(3,4,5-trimethoxyphenyl)acrylate] | 5.40 to 5.82 | 5.71 | 5.15 to 5.70 | 5.72 | 67 to 69 |  |  |  | 42700 | 10.10% and 10.16% and 13.50% and 07.50% and 11.92%
COc1ccc([C@@H](CNC(=O)/C=C/c2cc(OC)c(OC)c(OC)c2)OC(=O)/C=C/c2cc(OC)c(OC)c(OC)c2)cc1OC [Compound 41, (S)-1-(3,4-dimethoxyphenyl)-2-((E)-3-(3,4,5-trimethoxyphenyl)acrylamido)ethyl (E)-3-(3,4,5-trimethoxyphenyl)acrylate] | 5.40 to 5.82 | 5.75 | 5.15 to 5.70 | 5.50 | 138 to 140 |  |  |  | 88000 | 11.78% and 11.93% and 11.12% and 11.26% and 12.13%
